Columns and labels:
AZD1775 = compound: C=CCn1c(=O)c2cnc(Nc3ccc(N4CCN(C)CC4)cc3)nc2n1-c1cccc(C(C)(C)O)n1 [AZD1775]; details: max 3 µM
How it was run: (§1)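 In 1536-well plates, cancer cell lines in 7.5 μl DMEM/F12 or RPMI with 10% FBS spent 24 hours at 37°C and 5% CO2 and were then dosed for 72 hours with final DMSO typically 0.2%. Viability was read by CellTiter-Glo 2.0 luminescence and scaled between blank-well and DMSO-well means. The single-agent IC50 was fitted from dose responses using a logistic curve in a non-linear mixed effects model, and that logistic curve had two parameters.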

SRA737 = compound: N#Cc1cnc(Nc2cc(NC[C@H]3CNCCO3)c(C(F)(F)F)cn2)cn1 [SRA737]; details: max 10 µM
How it was run: as §1

Lapatinib = compound: CS(=O)(=O)CCNCc1ccc(-c2ccc3ncnc(Nc4ccc(OCc5cccc(F)c5)c(Cl)c4)c3c2)o1 [Lapatinib]; details: max 10 µM
How it was run: as §1

AZD4320 = compound: CN(CC[C@H](CSC1=CC=CC=C1)NC2=C(C=C(C=C2)S(=O)(=O)NC(=O)C3=CC=C(C=C3)N4CCC(CC4)[C@H](C5=CC=CC=C5C6=CC=C(C=C6)Cl)O)S(=O)(=O)C(F)(F)F)CCO [AZD4320]; details: max 1 µM
How it was run: as §1

SN-38 = compound: CCc1c2c(nc3ccc(O)cc13)-c1cc3c(c(=O)n1C2)COC(=O)[C@]3(O)CC [SN-38]; details: max 0.3 µM
How it was run: as §1

Carboplatin = compound: C1CC(C1)(C(=O)[O-])C(=O)[O-].N.N.[Pt+2] [Carboplatin]; details: max 10 µM
How it was run: as §1

Gefitinib = compound: COc1cc2ncnc(Nc3ccc(F)c(Cl)c3)c2cc1OCCCN1CCOCC1 [Gefitinib]; details: max 10 µM
How it was run: as §1

Palbociclib = compound: CC(=O)c1c(C)c2cnc(Nc3ccc(N4CCNCC4)cn3)nc2n(C2CCCC2)c1=O [Palbociclib]; details: max 10 µM
How it was run: as §1

Dasatinib = compound: CC1=C(C(=CC=C1)Cl)NC(=O)C2=CN=C(S2)NC3=CC(=NC(=N3)C)N4CCN(CC4)CCO [Dasatinib]; details: max 2 µM
How it was run: as §1

Trametinib = compound: CC(=O)Nc1cccc(-n2c(=O)n(C3CC3)c(=O)c3c(Nc4ccc(I)cc4F)n(C)c(=O)c(C)c32)c1 [Trametinib]; details: max 1 µM
How it was run: as §1

AZD5363 = compound: C1CN(CCC1(C(=O)N[C@@H](CCO)C2=CC=C(C=C2)Cl)N)C3=NC=NC4=C3C=CN4 [AZD5363]; details: max 10 µM
How it was run: as §1

AZD5153 = compound: COc1nnc2ccc(N3CCC(c4ccc(OCCN5CCN(C)C(=O)[C@H]5C)cc4)CC3)nn12 [AZD5153]; details: max 1 µM
How it was run: as §1

MK-2206 = compound: NC1(c2ccc(-c3nc4ccn5c(=O)[nH]nc5c4cc3-c3ccccc3)cc2)CCC1 [MK-2206]; details: max 10 µM
How it was run: as §1

AZD1390 = compound: CC(C)n1c(=O)n(C)c2cnc3cc(F)c(-c4ccc(OCCCN5CCCCC5)nc4)cc3c21 [AZD1390]; details: max 0.3 µM
How it was run: as §1

Olaparib = compound: O=C(c1cc(Cc2n[nH]c(=O)c3ccccc23)ccc1F)N1CCN(C(=O)C2CC2)CC1 [Olaparib]; details: max 10 µM
How it was run: as §1

[1] = compound: O=C(Nc1ccc2[nH]nc(-c3ccncc3)c2c1)[C@@H]1CCN(CC(=O)N2CCN(c3ccc(-c4ncccn4)cc3)CC2)C1; details: max 5 µM
How it was run: as §1

Savolitinib = compound: C[C@@H](c1ccc2nccn2c1)n1nnc2ncc(-c3cnn(C)c3)nc21 [Savolitinib]; details: max 1 µM
How it was run: as §1

Selumetinib = compound: Cn1cnc2c(F)c(Nc3ccc(Br)cc3Cl)c(C(=O)NOCCO)cc21 [Selumetinib]; details: max 10 µM
How it was run: as §1

Etoposide = compound: COc1cc([C@@H]2c3cc4c(cc3[C@@H](O[C@@H]3O[C@@H]5CO[C@@H](C)O[C@H]5[C@H](O)[C@H]3O)[C@H]3COC(=O)[C@H]23)OCO4)cc(OC)c1O [Etoposide]; details: max 10 µM
How it was run: as §1

Crizotinib = compound: C[C@@H](Oc1cc(-c2cnn(C3CCNCC3)c2)cnc1N)c1c(Cl)ccc(F)c1Cl [Crizotinib]; details: max 10 µM
How it was run: as §1

AZD7648 = compound: Cc1cc2ncnn2cc1Nc1ncc2c(n1)n(C1CCOCC1)c(=O)n2C [AZD7648]; details: max 10 µM
How it was run: as §1

AZD2811 = compound: CCN(CCO)CCCOc1ccc2c(Nc3cc(CC(=O)Nc4cccc(F)c4)[nH]n3)ncnc2c1 [AZD2811]; details: max 1 µM
How it was run: as §1

Gemcitabine = compound: Nc1ccn([C@@H]2O[C@H](CO)[C@@H](O)C2(F)F)c(=O)n1 [Gemcitabine]; details: max 0.3 µM
How it was run: as §1

Venetoclax = compound: CC1(C)CCC(CN2CCN(c3ccc(C(=O)NS(=O)(=O)c4ccc(NCC5CCOCC5)c([N+](=O)[O-])c4)c(Oc4cnc5[nH]ccc5c4)c3)CC2)=C(c2ccc(Cl)cc2)C1 [Venetoclax]; details: max 1 µM
How it was run: as §1

Doxorubicin = compound: COc1cccc2c1C(=O)c1c(O)c3c(c(O)c1C2=O)C[C@@](O)(C(=O)CO)C[C@@H]3O[C@H]1C[C@H](N)[C@H](O)[C@H](C)O1 [Doxorubicin]; details: max 1 µM
How it was run: as §1

AZD8186 = compound: C[C@@H](Nc1cc(F)cc(F)c1)c1cc(C(=O)N(C)C)cc2c(=O)cc(N3CCOCC3)oc12 [AZD8186]; details: max 10 µM
How it was run: as §1

Prexasertib = compound: COc1cccc(OCCCN)c1-c1cc(Nc2cnc(C#N)cn2)n[nH]1 [Prexasertib]; details: max 1 µM
How it was run: as §1

SG3199 = compound: CC1=CN2[C@@H](C1)C=NC3=CC(=C(C=C3C2=O)OC)OCCCCCOC4=C(C=C5C(=C4)N=C[C@@H]6CC(=CN6C5=O)C)OC [SG3199]; details: max 0.001 µM
How it was run: as §1

Alisertib = compound: COc1cc(Nc2ncc3c(n2)-c2ccc(Cl)cc2C(c2c(F)cccc2OC)=NC3)ccc1C(=O)O [Alisertib]; details: max 10 µM
How it was run: as §1

AZD5991 = compound: Cc1c2c(nn1C)CSCc1cc(n(C)n1)CSc1cc(c3ccccc3c1)OCCCc1c(C(=O)O)n(C)c3c-2c(Cl)ccc13 [AZD5991]; details: max 1 µM
How it was run: as §1

AZD0156 = compound: CN(C)CCCOc1ccc(-c2ccc3ncc4c(c3c2)n(C2CCOCC2)c(=O)n4C)cn1 [AZD0156]; details: max 3 µM
How it was run: as §1

Paclitaxel = compound: CC(=O)O[C@H]1C(=O)[C@@]2(C)[C@H]([C@H](OC(=O)c3ccccc3)[C@]3(O)C[C@H](OC(=O)[C@H](O)[C@@H](NC(=O)c4ccccc4)c4ccccc4)C(C)=C1C3(C)C)[C@]1(OC(C)=O)CO[C@@H]1C[C@@H]2O [Paclitaxel]; details: max 3 µM
How it was run: as §1

5-Fluorouracil = compound: O=c1[nH]cc(F)c(=O)[nH]1 [5-Fluorouracil]; details: max 20 µM
How it was run: as §1

Taselisib = compound: Cc1nc(-c2cn3c(n2)-c2ccc(-c4cnn(C(C)(C)C(N)=O)c4)cc2OCC3)n(C(C)C)n1 [Taselisib]; details: max 10 µM
How it was run: as §1

AZD6738 = compound: C[C@@H]1COCCN1C2=NC(=NC(=C2)C3(CC3)[S@](=N)(=O)C)C4=C5C=CNC5=NC=C4 [AZD6738]; details: max 10 µM
How it was run: as §1

MDA-MB-231 (Breast Carcinoma)
IC50, cell viability 72 h (AZD1775): > 3000 nM | IC50, cell viability 72 h (SRA737): > 10000 nM | IC50, cell viability 72 h (Lapatinib): > 10000 nM | IC50, cell viability 72 h (AZD4320): > 1000 nM | IC50, cell viability 72 h (SN-38): 109 nM | IC50, cell viability 72 h (Carboplatin): > 10000 nM | IC50, cell viability 72 h (Gefitinib): > 10000 nM | IC50, cell viability 72 h (Palbociclib): > 10000 nM | IC50, cell viability 72 h (Dasatinib): 1900 nM | IC50, cell viability 72 h (Trametinib): 204 nM | IC50, cell viability 72 h (AZD5363): > 10000 nM | IC50, cell viability 72 h (AZD5153): 374 nM | IC50, cell viability 72 h (MK-2206): > 10000 nM | IC50, cell viability 72 h (AZD1390): > 300 nM | IC50, cell viability 72 h (Olaparib): > 10000 nM | IC50, cell viability 72 h [1]: 1910 nM | IC50, cell viability 72 h (Savolitinib): > 1000 nM | IC50, cell viability 72 h (Selumetinib): 9410 nM | IC50, cell viability 72 h (Etoposide): > 10000 nM | IC50, cell viability 72 h (Crizotinib): > 10000 nM | IC50, cell viability 72 h (AZD7648): > 10000 nM | IC50, cell viability 72 h (AZD2811): > 1000 nM | IC50, cell viability 72 h (Gemcitabine): 184 nM | IC50, cell viability 72 h (Venetoclax): > 1000 nM | IC50, cell viability 72 h (Doxorubicin): 592 nM | IC50, cell viability 72 h (AZD8186): > 10000 nM | IC50, cell viability 72 h (Prexasertib): 173 nM | IC50, cell viability 72 h (SG3199): > 1 nM | IC50, cell viability 72 h (Alisertib): > 10000 nM | IC50, cell viability 72 h (AZD5991): > 1000 nM | IC50, cell viability 72 h (AZD0156): > 3000 nM | IC50, cell viability 72 h (Paclitaxel): 456 nM | IC50, cell viability 72 h (5-Fluorouracil): > 20000 nM | IC50, cell viability 72 h (Taselisib): > 10000 nM | IC50, cell viability 72 h (AZD6738): 9530 nM

— the supplement of paper PMC11061612
